Source: patent US9131694B2, “Insecticidal pyridine compounds” (Dow AgroSciences, LLC, priority 2009, dated 2015)

Experiments:
[1] = tested on: Beet Armyworm (Spodoptera exigua); assay: Insecticidal test for beet armyworm, treated lepidopteran diet; format: in vivo; details: 2000 ppm test solution, 50 μL per well on diet (50 g/cm^2 dose), second-instar larvae, observed 2 and 5 days after treatment
Description: Insecticidal Test for Beet Armyworm (Spodoptera exigua). To prepare test solution, the test compound was formulated at 2000 ppm solution in 2 mL of 9 acetone: 1 tap water. 50 μL of the test solution ([…] dose for each well) was pipetted upon the surface of 1 mL of lepidopteran diet (Southland Multi-Species Lepidopteran Diet) contained in each of eight wells per insect species (one well=1 replication). A second-instar beet armyworm was placed upon the treated diet in each well (one insect per well) once the solvent had air-dried. Trays containing the treated diet and larvae were covered and then held in a growth chamber at 25° C., 50-55% RH, and 16 hr light:8 hr dark for 5 days. Observation were conducted 2 and 5 days after treatment and infestation to score the number of dead insects per 8-well treatment. The results of this test are set forth in the column labelled “Beet Armyworm” in Table 1 below, in which letter designations represent ranges of percent control as set forth above.

[2] = tested on: Green Peach Aphid (Myzus persicae); assay: Insecticidal test for green peach aphid in foliar spray assay on cabbage seedlings; format: in vivo; details: 200 ppm foliar spray on infested cabbage seedlings, graded after three days
Description: Insecticidal Test for Green Peach Aphid (Myzus persicae) in Foliar Spray Assay Cabbage seedlings grown in 3-inch pots, with 2-3 small (3-5 cm) true leaves, were used as test substrate. The seedlings were infested with 20-50 green peach aphids (wingless adult and nymph) 1-2 days prior to chemical application. Four seedlings were used for each treatment. Selected compounds (2 mg), many of which are described above, were dissolved in 2 ml of acetone:methanol (1:1) solvent, forming stock solutions of 1000 ppm. The stock solutions were diluted 5× with 0.025% Tween 20 in H2O to obtain a solution at 200 ppm. A hand-held Devilbiss aspirator sprayer was used for spraying a solution to both sides of cabbage leaves until runoff. Reference plants (solvent check) were sprayed with the diluent only. Treated plants were held in a holding room for three days at approximately 23° C. and 40% relative humidity prior to grading. Evaluation was conducted by counting the number of live aphids per plant under a microscope. Insecticidal activity was measured by using Abbott's correction formula: Corrected % Control=100*(X−Y)/X • where • X=No. of live aphids on solvent check plants • Y=No. of live aphids on treated plants The results of this test are set forth in the column labelled “Green Peach Aphid” in Table 1 below, in which letter designations represent ranges of percent control as follows: • A=80-100% control • B=60-79% control • C=40-59% control • D=20-39% control • E=0-19% control

Compound | Beet Armyworm percent control [1] | Green Peach Aphid percent control (Abbott corrected % control) [2]
FC(F)(F)c1cc(N2CCCC2c2ccccn2)nc(Cl)c1Cl (stereo not drawn) [Compound 1, 6-[2-(2-Pyridyl)-1-pyrrolidinyl]-4-trifluoromethyl-2,3-dichloropyridine] | B (B=60-79% control) | A (A=80-100% control)
N#Cc1c(C(F)(F)F)cc(N2C(c3ccccc3)COC2c2ccccn2)nc1Cl (stereo not drawn) [Compound 18, 2-chloro-6-[4-phenyl-2-(2-pyridyl)oxazolidin-3-yl]-4-(trifluoromethyl)pyridine-3-carbonitrile] | E (E=0-19% control) | E (E=0-19% control)
FC(F)(F)c1cc(N2CCCC2c2ccccn2)nc(Cl)c1Br (stereo not drawn) | E (E=0-19% control) | D (D=20-39% control)
FC(F)(F)c1cc(N2CCCC2c2ccccn2)ncc1Cl (stereo not drawn) | D (D=20-39% control) | E (E=0-19% control)
FC(F)(F)c1cc(N2CCCCC2c2ccccn2)nc(Cl)c1Cl (stereo not drawn) [Compound 6] | A (A=80-100% control) | D (D=20-39% control)
FC(F)(F)c1c(Cl)cnc(N2CCCC2c2ccccn2)c1Cl (stereo not drawn) | B (B=60-79% control) | E (E=0-19% control)
FC(F)(F)c1cc(-n2c(-c3ccccn3)nc3ccccc32)nc(Cl)c1Cl | D (D=20-39% control) | D (D=20-39% control)
CC(C)C1COC(c2ccccn2)N1c1cc(C(F)(F)F)c(C#N)c(Cl)n1 (stereo not drawn) [Compound 12, 2-chloro-6-[4-isopropyl-2-(2-pyridyl)oxazolidin-3-yl]-4-(trifluoromethyl)pyridine-3-carbonitrile] | E (E=0-19% control) | D (D=20-39% control)
FC(F)(F)c1cc(Cl)nc(N2CCCC2c2ccccn2)c1Cl (stereo not drawn) [Compound 2, 6-[2-(2-pyridyl)-1-pyrrolidinyl]-4-trifluoromethyl-2,5-dichloropyridine] | B (B=60-79% control) | C (C=40-59% control)
CC1COC(c2ccccn2)N1c1cc(C(F)(F)F)c(C#N)c(Cl)n1 (stereo not drawn) [Compound 16, 2-chloro-6-[4-methyl-2-(2-pyridyl)oxazolidin-3-yl]-4-(trifluoromethyl)pyridine-3-carbonitrile] | E (E=0-19% control) | E (E=0-19% control)
C[Si](C)(C)c1c(C(F)(F)F)cc(N2CCCC2c2ccccn2)nc1Cl (stereo not drawn) [Compound 10] | E (E=0-19% control) | E (E=0-19% control)
CCC1CN(c2cc(C(F)(F)F)c(C#N)c(Cl)n2)C(c2ccccn2)O1 (stereo not drawn) [Compound 19, 2-Chloro-6-[5-ethyl-2-(2-pyridyl)oxazolidin-3-yl]-4-(trifluoromethyl)pyridine-3-carbonitrile] | C (C=40-59% control) | C (C=40-59% control)
